Among the data in patent publication US12280023B2, “Fluorophenyl beta-hydroxyethylamines and their use in the treatment of hyperglycaemia” (ATROGI AB, priority 2017, dated 2025) are Emax values, retold here.

For one experiment, the system named is L6-myotubes. Nature of the experiment: Glucose uptake (3H-2-deoxy-glucose) in differentiated L6-myotubes. The note with it: agonist final concentration 1×10^−5, 50 nM 3H-2-deoxy-glucose, relative to isoproterenol, read-out: Biological example 1: glucose uptake activity compared to that of isoproterenol. The class given is cell-based. The protocol:
(§1) L6-myoblasts were grown in Dulbecco's Modified Eagle's Medium (DMEM) containing 4.5 g/l glucose supplemented with 10% fetal bovine serum, 2 mM L-Glutamine, 50 U/ml penicillin, 50 μg/ml streptomycin and 10 mM HEPES. Cells were plated at 1×10^5 cells per ml in 24-well plates. After reaching 90% confluence the cells were grown in medium containing 2% FBS for 7 days where upon cells differentiated into myotubes.
Differentiated L6-myotubes were serum-starved over night in medium containing 0.5% fatty-acid free BSA and stimulated with agonist, final concentration 1×10^−5. After 1 h 40 min cells were washed with warm, glucose free medium or PBS and another portion of agonist was added to glucose free medium. After 20 min the cells were exposed to 50 nM ^3H-2-deoxy-glucose for another 10 min before washed in ice cold glucose free medium or PBS and lysed in 0.2 M NaOH for 1 h in 60° C.

For experiment [1], the system named is Intracellular cAMP levels. Description: Measurement of intracellular cAMP levels in differentiated L6 cells. As to conditions: Rattus norvegicus, L6, 0.25 h, agonist final concentration 1×10^−5, 15 min, alpha screen cAMP kit, relative to isoproterenol, read-out: Biological example 2: intracellular cAMP activity compared to that of isoproterenol. The class given is cell-based. The protocol: as §1
Differentiated cells were serum-starved over night and stimulated with agonist, final concentration 1×10^−5, for 15 min in stimulation buffer (HBSS supplemented with 1% BSA, 5 mM HEPES and 1 mM IBMX, pH 7.4). The medium was then aspirated and to end the reaction 100 μL of 95% EtOH was added to each well of a 24-well plate and cells were kept in −20° C. over night. The EtOH was let to evaporate and 500 μL of lysis buffer (1% BSA, 5 mM HEPES and 0.3% Tween-20, pH 7.4) was added to each well before put in −80° C. for 30 min and then kept in −20° C. Intracellular cAMP levels were detected using an alpha screen cAMP kit (6760635D from Perkin Elmer). The activity for each compound is compared to that of isoproterenol.

Where a name gives a salt, the structure may show the parent alone.

As for `CCCCNCC(O)c1cc(F)cc(F)c1` (centres unmarked) [Example 1, 2-(Butylamino)-1-(3,5-difluorophenyl)ethan-1-ol], the values for the Emax (with L6-myotubes; in experiment [1]) were 50 to 75% and below 25%, respectively.

On to `CCCCNCC(O)c1ccc(F)c(F)c1` (centres unmarked) [Example 2, 2-(Butylamino)-1-(3,4-difluorophenyl)ethan-1-ol], for which the Emax was 50 to 75% in the experiment on L6-myotubes and below 25% in experiment [1].

Turning to `CCCCNC[C@H](O)c1ccc(F)cc1` [Example 3, (R)-2-(Butylamino)-1-(4-fluorophenyl)ethan-1-ol], the Emax in the experiment on L6-myotubes is 25 to 50%; in experiment [1], below 25%.

As to `CCCCNC[C@H](O)c1cccc(F)c1` [Example 4, (R)-2-(Butylamino)-1-(3-fluorophenyl)ethan-1-ol], the Emax in the experiment on L6-myotubes is above 75%; in experiment [1] it was below 25%.

For `CC(C)(C)NC[C@H](O)c1cccc(F)c1` [Example 5, (R)-2-(tert-Butylamino)-1-(3-fluorophenyl)ethan-1-ol], the Emax in the experiment with L6-myotubes was above 75%; in experiment [1], below 25%.

`CCCCNCC(O)c1cc(F)c(N)c(F)c1` (centres unmarked) [Example 6, 1-(4-Amino-3,5-difluorophenyl)-2-(butylamino)ethan-1-ol]: the Emax (with L6-myotubes; in experiment [1]) was above 75% in each case.

For `CCCCNCC(O)c1ccc(F)c(N)c1F` (centres unmarked) [Example 7, 1-(3-Amino-2,4-difluorophenyl)-2-(butylamino)ethan-1-ol], the Emax is above 75% in the experiment on L6-myotubes and below 25% in experiment [1].

`CCCCNCC(O)c1ccc(F)c(NC(C)=O)c1F` (centres unmarked) [Example 8, N-(3-(2-(Butylamino)-1-hydroxyethyl)-2,6-difluorophenyl)acetamide]: the Emax was 25 to 50% in the experiment on L6-myotubes and below 25% in experiment [1].

`CCC[C@@H](C)NC[C@H](O)c1ccc(F)cc1` [Example 10, (R)-1-(4-Fluorophenyl)-2-(((R)-pentan-2-yl)amino)ethan-1-ol]: the Emax in the experiment with L6-myotubes is 50 to 75%; in experiment [1], below 25%.

With `CCC[C@H](C)NC[C@H](O)c1ccc(F)cc1` [Example 11, (R)-1-(4-Fluorophenyl)-2-(((S)-pentan-2-yl)amino)ethan-1-ol], the Emax in the experiment with L6-myotubes is 25 to 50%; in experiment [1], below 25%.

With `CCC[C@@H](C)NC[C@H](O)c1cccc(F)c1` [Example 12, (R)-1-(3-fluorophenyl)-2-(((R)-pentan-2-yl)amino)ethan-1-ol], the Emax with L6-myotubes is above 75%; in experiment [1], below 25%.

Take `CCC[C@H](C)NC[C@H](O)c1cccc(F)c1` [Example 13, (R)-1-(3-fluorophenyl)-2-(((S)-pentan-2-yl)amino)ethan-1-ol]: the Emax in the experiment with L6-myotubes was 50 to 75%; in experiment [1] it was below 25%.

On to `CCCC(C)(C)NC[C@H](O)c1cccc(F)c1` [Example 14, (R)-1-(3-Fluorophenyl)-2-((2-methylpentan-2-yl)amino)ethan-1-ol], for which the results for the Emax (in the experiment on L6-myotubes; in experiment [1]) were above 75% and below 25%, respectively.

As for `CC(C)(C)NC[C@H](O)c1cccc(F)c1F` [Example 15, (R)-2-(tert-Butylamino)-1-(2,3-difluorophenyl)ethan-1-ol], the Emax in the experiment with L6-myotubes is above 75%; in experiment [1], 25 to 50%.

Regarding `CCCCNC[C@H](O)c1cccc(F)c1F` [Example 16, (R)-2-(Butylamino)-1-(2,3-difluorophenyl)ethan-1-ol], the Emax in the experiment with L6-myotubes is above 75%; in experiment [1], below 25%.

On to `CC(C)(C)NC[C@H](O)c1ccccc1F` [Example 17, (R)-2-(tert-Butylamino)-1-(2-fluorophenyl)ethan-1-ol], for which the Emax in the experiment with L6-myotubes was 50 to 75%; in experiment [1], below 25%.

In the case of `CCCCNC[C@H](O)c1ccccc1F` [Example 18, (R)-2-(Butylamino)-1-(2-fluorophenyl)ethan-1-ol], the Emax with L6-myotubes was above 75%; in experiment [1], below 25%.

With `CC(C)(C)NC[C@H](O)c1ccc(F)cc1O` [Example 19, (R)-2-(2-(tert-Butylamino)-1-hydroxyethyl)-5-fluorophenol acetate], the figures for the Emax (in the experiment on L6-myotubes; in experiment [1]) were 50 to 75% and below 25%, respectively.

For the compound `CCCCNC[C@H](O)c1ccc(F)cc1O` [Example 20, (R)-2-(2-(Butylamino)-1-hydroxyethyl)-5-fluorophenol acetate], the Emax is above 75% in the experiment with L6-myotubes and below 25% in experiment [1].

Regarding `CC1(NC[C@H](O)c2cccc(F)c2)CCC1` [Example 21, (R)-1-(3-fluorophenyl)-2-((1-methylcyclobutyl)amino)ethan-1-ol], the Emax in the experiment on L6-myotubes is above 75%; in experiment [1], 25 to 50%.

For the compound `CC1(NC[C@H](O)c2cccc(F)c2)CC1` [Example 22, (R)-1-(3-fluorophenyl)-2-((1-methylcyclopropyl)amino)ethan-1-ol], the figures for the Emax (with L6-myotubes; in experiment [1]) were above 75% and below 25%, respectively.

As for `CC(C)(C)NC[C@H](O)c1ccc(F)c(O)c1` [Example 23, (R)-5-(2-(tert-Butylamino)-1-hydroxyethyl)-2-fluorophenol acetate], the Emax was above 75% with L6-myotubes and 50 to 75% in experiment [1].

With `CCCCNC[C@H](O)c1ccc(F)c(O)c1` [Example 24, (R)-5-(2-(Butylamino)-1-hydroxyethyl)-2-fluorophenol acetate], the Emax was above 75% with L6-myotubes and below 25% in experiment [1].

Regarding `CC(C)(C)NC[C@H](O)c1cccc(O)c1F` [Example 25, (R)-3-(2-(tert-Butylamino)-1-hydroxyethyl)-2-fluorophenol], the Emax (in the experiment with L6-myotubes; in experiment [1]) was 50 to 75% in each case.

For `CCCCNC[C@H](O)c1cccc(O)c1F` [Example 26, (R)-3-(2-(Butylamino)-1-hydroxyethyl)-2-fluorophenol], the Emax in the experiment on L6-myotubes was above 75%; in experiment [1], 25 to 50%.

With `CC(C)(C)NC[C@H](O)c1cccc(N)c1F` [Example 27, (R)-1-(3-Amino-2-fluorophenyl)-2-(tert-butylamino)ethan-1-ol], the Emax in the experiment on L6-myotubes was above 75%; in experiment [1] it was 25 to 50%.

As to `CCCCNC[C@H](O)c1cccc(N)c1F` [Example 28, (R)-1-(3-Amino-2-fluorophenyl)-2-(butylamino)ethan-1-ol dihydrochloride], the Emax in the experiment on L6-myotubes was 50 to 75%; in experiment [1], below 25%.

For the compound `CC(C)(C)CNC[C@H](O)c1cccc(F)c1` [Example 29, (R)-1-(3-Fluorophenyl)-2-(neopentylamino)ethan-1-ol hydrochloride], the figures for the Emax (in the experiment with L6-myotubes; in experiment [1]) were 25 to 50% and below 25%, respectively.

Consider `O[C@@H](CNC1(C(F)(F)F)CC1)c1cccc(F)c1` [Example 30, (R)-1-(3-fluorophenyl)-2-O-(trifluoromethyl)cyclopropyl)amino)ethan-1-ol hydrochloride], for which the Emax is 50 to 75% in the experiment on L6-myotubes and below 25% in experiment [1].

Regarding `CC(C)(C)NC[C@H](O)c1ccc(F)c(N)c1F` [Example 31, (R)-1-(3-amino-2,4-difluorophenyl)-2-(tert-butylamino)ethan-1-ol hydrochloride], the Emax was above 75% with L6-myotubes and below 25% in experiment [1].

Regarding `Cc1c(F)cccc1[C@@H](O)CNC(C)(C)C` [Example 32, (R)-2-(tert-butylamino)-1-(3-fluoro-2-methylphenyl)ethan-1-ol], the Emax in the experiment on L6-myotubes was above 75%; in experiment [1], below 25%.
